Tests used:
Format in all cases: biochemical
[1] = target: T1, B-Raf V600E (Homo sapiens, UniProt P15056, V600E); test: AlphaScreen kinase assay, B-Raf V600E; conditions: read-out: IC50, activity toward kinase B-Raf V600E
T1 construct: P4254. pFastBacBD-CDC37 BRAF D437-K722-X, V600E; His6 with pFastBac HT leader (TEV site) (N); made in house; host or cells: Sf9 (baculovirus; chaperone CDC37 co-expressed)

[2] = target: T2, Jnk1 (Homo sapiens, UniProt P45983); test: AlphaScreen kinase assay, Jnk1; conditions: read-out: IC50, activity toward kinase Jnk1
T2 construct: purchased Upstate Biotechnology

[3] = target: T3, Fms (Homo sapiens, UniProt P07333); test: AlphaScreen kinase assay, Fms; conditions: read-out: IC50, activity toward kinase Fms
T3 construct: purchased Upstate Biotechnology

[4] = target: T4, B-Raf (Homo sapiens, UniProt P15056); test: AlphaScreen kinase assay, B-Raf; conditions: read-out: IC50, activity toward kinase B-Raf
T4 construct: purchased Upstate Biotechnology

[5] = target: T5, Jnk3 (Homo sapiens, UniProt P53779); test: AlphaScreen kinase assay, Jnk3; conditions: read-out: IC50, activity toward kinase Jnk3
T5 construct: purchased Upstate Biotechnology

[6] = target: T6, Kit (Homo sapiens, UniProt P10721); test: AlphaScreen kinase assay, Kit; conditions: read-out: IC50, activity toward kinase Kit
T6 construct: P1332.N6 BI PTP KIT M552-K948-X COD; His6 (N); made in house; host or cells: E. coli (PTP1B co-expressed)

[7] = target: T7, Flt1 (Homo sapiens, UniProt P17948); test: AlphaScreen kinase assay, Flt1; conditions: read-out: IC50, activity toward kinase Flt1
T7 construct: P1826.pETN6 BI-PTP FLT1 M799-D1165-X WT; His6 (N); made in house; host or cells: E. coli (PTP1B co-expressed)
T7 sequence (P17948 with tags, fused parts or gaps): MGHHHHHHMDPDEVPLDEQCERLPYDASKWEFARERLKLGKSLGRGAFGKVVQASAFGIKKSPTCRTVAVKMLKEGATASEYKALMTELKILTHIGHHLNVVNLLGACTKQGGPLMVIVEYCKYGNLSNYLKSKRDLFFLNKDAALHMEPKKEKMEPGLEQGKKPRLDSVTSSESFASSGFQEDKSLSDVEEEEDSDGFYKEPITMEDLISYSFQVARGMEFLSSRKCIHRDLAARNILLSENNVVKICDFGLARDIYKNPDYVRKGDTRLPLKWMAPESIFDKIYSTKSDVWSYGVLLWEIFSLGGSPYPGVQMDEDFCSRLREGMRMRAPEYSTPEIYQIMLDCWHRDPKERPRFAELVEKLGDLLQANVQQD

[8] = target: T8, FGFR1 (Homo sapiens, UniProt P11362, C488A/C584S); test: AlphaScreen kinase assay, FGFR1; conditions: read-out: IC50, activity toward kinase FGFR
T8 construct: P1351.pET N6 BI-PTP FGFR A458-E765-X C488A, C584S; made in house; host or cells: E. coli (PTP1B co-expressed)

[9] = target: T9, Src (Homo sapiens, UniProt P12931); test: AlphaScreen kinase assay, Src; conditions: read-out: IC50, activity toward kinase Src
T9 construct: P1144. pET-N6 BI-PTP SRC V86-L536-X; made in house

[10] = target: T10, c-Raf-1 (Homo sapiens, UniProt P04049); test: AlphaScreen kinase assay, c-Raf-1; conditions: read-out: IC50, activity toward kinase c-Raf-1
T10 construct: purchased Upstate Biotechnology

[11] = target: T11, Ret (Homo sapiens, UniProt P07949); test: AlphaScreen kinase assay, Ret; conditions: read-out: IC50, activity toward kinase Ret
T11 construct: P1378.pET-SF BI-PTP RET H661-R1012 HIS; made in house
T11 sequence (P07949 with tags, fused parts or gaps): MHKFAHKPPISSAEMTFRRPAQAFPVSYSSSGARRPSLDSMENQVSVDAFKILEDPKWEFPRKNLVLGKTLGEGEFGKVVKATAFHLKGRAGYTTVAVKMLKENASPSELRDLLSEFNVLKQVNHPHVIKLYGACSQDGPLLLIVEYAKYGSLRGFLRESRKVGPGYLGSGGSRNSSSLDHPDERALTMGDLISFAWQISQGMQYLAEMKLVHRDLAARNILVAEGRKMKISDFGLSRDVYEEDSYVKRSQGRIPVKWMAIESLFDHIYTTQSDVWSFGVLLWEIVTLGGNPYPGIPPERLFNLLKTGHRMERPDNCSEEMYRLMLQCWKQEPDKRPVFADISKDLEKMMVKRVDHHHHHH

Measured: IC50

T9 sequence (P12931 with tags, fused parts or gaps): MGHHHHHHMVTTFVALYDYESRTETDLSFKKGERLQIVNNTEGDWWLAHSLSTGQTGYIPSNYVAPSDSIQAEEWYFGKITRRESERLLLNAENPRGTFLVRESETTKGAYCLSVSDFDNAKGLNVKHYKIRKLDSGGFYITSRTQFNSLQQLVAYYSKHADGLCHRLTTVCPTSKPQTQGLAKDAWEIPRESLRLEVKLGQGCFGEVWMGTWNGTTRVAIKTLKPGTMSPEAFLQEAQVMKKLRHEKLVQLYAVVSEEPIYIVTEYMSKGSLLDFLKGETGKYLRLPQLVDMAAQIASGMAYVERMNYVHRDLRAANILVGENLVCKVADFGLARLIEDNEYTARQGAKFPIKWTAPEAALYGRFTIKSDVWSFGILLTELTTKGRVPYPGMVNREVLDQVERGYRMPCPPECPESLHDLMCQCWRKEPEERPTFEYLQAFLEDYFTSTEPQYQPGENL
T1 sequence (P15056 with tags, fused parts or gaps V600E): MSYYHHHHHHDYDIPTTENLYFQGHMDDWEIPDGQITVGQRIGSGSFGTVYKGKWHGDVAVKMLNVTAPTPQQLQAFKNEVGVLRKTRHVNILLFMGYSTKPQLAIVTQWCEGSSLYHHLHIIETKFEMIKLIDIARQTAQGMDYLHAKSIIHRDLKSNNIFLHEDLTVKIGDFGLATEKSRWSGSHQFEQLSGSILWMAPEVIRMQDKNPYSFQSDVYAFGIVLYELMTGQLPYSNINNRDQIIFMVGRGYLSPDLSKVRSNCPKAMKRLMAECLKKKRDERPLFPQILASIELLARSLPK
T5 sequence (P53779 whole entry): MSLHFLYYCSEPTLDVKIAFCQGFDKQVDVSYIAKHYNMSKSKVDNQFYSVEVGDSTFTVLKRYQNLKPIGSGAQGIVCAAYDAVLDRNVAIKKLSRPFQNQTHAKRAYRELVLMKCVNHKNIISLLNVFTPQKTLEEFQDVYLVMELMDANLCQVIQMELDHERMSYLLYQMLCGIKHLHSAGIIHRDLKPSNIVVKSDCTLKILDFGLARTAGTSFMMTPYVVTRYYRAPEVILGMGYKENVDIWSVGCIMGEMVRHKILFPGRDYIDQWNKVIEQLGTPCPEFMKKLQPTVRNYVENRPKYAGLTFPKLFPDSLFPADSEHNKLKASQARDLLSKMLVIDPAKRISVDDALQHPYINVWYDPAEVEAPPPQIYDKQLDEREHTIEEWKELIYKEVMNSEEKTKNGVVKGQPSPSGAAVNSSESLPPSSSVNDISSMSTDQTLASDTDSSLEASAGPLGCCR
T4 sequence (P15056 whole entry): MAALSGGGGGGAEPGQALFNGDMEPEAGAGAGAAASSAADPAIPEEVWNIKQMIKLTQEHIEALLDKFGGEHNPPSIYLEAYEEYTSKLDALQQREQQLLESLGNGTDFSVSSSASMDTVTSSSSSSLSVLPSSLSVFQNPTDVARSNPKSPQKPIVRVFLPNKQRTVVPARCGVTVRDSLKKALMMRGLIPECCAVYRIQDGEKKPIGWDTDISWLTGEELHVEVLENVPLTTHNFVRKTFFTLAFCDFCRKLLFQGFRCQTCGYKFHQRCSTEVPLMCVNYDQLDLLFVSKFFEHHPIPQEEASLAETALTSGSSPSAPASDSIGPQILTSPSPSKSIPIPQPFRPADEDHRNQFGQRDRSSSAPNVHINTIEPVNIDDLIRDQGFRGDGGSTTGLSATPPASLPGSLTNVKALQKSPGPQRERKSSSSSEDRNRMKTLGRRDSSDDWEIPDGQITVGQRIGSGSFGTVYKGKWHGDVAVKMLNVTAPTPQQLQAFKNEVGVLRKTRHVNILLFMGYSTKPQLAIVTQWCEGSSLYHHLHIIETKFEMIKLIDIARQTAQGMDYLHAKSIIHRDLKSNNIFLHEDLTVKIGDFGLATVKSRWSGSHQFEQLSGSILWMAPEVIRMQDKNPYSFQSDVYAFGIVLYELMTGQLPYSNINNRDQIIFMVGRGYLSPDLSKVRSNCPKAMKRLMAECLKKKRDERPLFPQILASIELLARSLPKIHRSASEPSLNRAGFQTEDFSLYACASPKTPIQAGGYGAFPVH
T6 sequence (P10721 with tags, fused parts or gaps): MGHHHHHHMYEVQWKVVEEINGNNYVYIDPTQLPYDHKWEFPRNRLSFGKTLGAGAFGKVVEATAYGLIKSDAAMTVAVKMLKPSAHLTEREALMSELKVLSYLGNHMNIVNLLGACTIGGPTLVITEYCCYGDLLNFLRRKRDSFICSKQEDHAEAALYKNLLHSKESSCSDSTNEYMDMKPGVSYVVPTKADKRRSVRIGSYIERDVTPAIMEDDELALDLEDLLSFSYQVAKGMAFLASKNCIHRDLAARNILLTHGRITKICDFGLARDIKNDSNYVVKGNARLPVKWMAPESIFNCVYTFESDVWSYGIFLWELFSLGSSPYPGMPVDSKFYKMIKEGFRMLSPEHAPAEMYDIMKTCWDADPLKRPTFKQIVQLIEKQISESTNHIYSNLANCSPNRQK
T10 sequence (P04049 whole entry): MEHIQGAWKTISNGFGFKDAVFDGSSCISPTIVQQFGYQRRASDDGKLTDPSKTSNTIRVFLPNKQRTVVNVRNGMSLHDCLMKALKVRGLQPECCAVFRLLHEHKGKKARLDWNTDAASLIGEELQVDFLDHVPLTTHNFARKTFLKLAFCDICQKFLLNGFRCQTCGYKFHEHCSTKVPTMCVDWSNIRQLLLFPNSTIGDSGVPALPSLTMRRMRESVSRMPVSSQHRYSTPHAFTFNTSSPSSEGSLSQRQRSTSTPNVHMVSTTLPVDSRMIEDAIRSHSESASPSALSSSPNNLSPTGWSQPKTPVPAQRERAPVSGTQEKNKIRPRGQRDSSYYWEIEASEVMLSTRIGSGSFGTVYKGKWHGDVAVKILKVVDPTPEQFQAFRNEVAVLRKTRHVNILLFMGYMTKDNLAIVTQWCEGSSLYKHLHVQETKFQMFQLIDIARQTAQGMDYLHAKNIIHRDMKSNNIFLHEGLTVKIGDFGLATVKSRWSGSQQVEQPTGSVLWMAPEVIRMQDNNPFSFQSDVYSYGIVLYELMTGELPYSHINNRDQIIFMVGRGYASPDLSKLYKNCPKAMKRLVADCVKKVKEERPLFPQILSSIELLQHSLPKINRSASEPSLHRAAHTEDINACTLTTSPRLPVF
T8 sequence (P11362 458-765 C488A/C584S): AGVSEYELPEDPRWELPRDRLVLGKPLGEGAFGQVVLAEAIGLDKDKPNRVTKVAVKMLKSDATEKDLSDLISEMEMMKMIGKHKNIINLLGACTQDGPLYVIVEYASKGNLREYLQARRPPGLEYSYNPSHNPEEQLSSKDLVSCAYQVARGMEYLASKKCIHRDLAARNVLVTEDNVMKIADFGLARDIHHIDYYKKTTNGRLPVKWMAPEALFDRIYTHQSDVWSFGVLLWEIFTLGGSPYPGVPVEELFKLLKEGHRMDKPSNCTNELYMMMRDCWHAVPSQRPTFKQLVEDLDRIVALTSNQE
T2 sequence (P45983 whole entry): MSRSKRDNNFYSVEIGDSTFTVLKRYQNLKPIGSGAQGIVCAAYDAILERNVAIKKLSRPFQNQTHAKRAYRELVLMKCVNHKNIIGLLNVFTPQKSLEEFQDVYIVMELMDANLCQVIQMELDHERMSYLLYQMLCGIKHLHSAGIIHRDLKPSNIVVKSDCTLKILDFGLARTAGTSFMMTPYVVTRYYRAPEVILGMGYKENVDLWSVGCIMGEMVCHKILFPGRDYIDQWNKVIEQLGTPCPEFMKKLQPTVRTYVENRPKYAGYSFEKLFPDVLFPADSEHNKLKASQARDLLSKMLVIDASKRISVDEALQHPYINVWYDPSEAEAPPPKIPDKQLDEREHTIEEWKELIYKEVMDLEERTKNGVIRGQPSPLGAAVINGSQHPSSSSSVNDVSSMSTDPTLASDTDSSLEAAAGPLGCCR
T3 sequence (P07333 20-972): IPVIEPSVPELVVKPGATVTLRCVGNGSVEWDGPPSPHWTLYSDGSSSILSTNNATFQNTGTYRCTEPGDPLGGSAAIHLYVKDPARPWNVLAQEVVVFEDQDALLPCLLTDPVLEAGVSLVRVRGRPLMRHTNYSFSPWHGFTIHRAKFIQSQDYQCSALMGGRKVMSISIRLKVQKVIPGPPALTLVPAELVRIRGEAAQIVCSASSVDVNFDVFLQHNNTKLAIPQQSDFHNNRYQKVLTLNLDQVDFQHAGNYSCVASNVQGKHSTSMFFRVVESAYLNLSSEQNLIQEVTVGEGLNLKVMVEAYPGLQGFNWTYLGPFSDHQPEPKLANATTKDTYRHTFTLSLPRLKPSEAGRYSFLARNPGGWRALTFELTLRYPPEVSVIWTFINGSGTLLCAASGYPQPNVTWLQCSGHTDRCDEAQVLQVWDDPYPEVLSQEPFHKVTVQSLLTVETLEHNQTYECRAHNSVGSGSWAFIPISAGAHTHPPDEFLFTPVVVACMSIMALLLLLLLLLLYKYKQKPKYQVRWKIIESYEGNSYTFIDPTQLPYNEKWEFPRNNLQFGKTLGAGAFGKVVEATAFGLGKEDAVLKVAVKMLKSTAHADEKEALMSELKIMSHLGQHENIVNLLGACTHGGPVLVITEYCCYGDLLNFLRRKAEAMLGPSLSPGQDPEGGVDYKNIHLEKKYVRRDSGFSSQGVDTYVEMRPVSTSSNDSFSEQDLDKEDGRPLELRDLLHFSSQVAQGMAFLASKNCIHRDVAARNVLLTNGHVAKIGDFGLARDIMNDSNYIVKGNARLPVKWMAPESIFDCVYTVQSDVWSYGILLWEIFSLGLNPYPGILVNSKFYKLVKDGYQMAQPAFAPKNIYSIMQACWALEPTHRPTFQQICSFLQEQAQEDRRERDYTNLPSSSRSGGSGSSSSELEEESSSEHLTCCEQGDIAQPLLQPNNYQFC

CCCCNC(=O)Nc1ccc(F)c(C(=O)c2c[nH]c3ncc(-c4cccnc4)cc23)c1 [Compound P-1534, 1-Butyl-3-[4-fluoro-3-(5-pyridin-3-yl-1H-pyrrolo[2,3-b]pyridine-3-carbonyl)-phenyl]-urea]
not listed: [9] | [10] | [11]
≤ 10 µM: all other assays above

O=C(c1c(Cl)cccc1Cl)c1c[nH]c2ncccc12 [Compound P-1476]
≤ 10 µM: [3] | [9] | [6] | [8]

Cc1cccc(C)c1C(=O)c1c[nH]c2ncccc12 [Compound P-1484]
≤ 10 µM: [9] | [6]

COC(=O)Nc1ccc(F)c(C(=O)c2c[nH]c3ncc(Br)cc23)c1F [Compound P-1448]
≤ 10 µM: [1] | [3] | [10] | [9] | [8]

Nc1ccc(F)c(C(=O)c2c[nH]c3ncc(-c4ccccc4)cc23)c1 [Compound P-1577]
≤ 10 µM: [1] | [2] | [4] | [5] | [7] | [8]

CCCS(=O)(=O)Nc1cccc(C(=O)c2c[nH]c3ncc(-c4ccccc4)cc23)c1C [Compound P-1610]
not listed: [6] | [9] | [10] | [11]
≤ 10 µM: all other assays above

COc1cccc(N(C)c2c[nH]c3ncccc23)c1 [Compound P-1506, (3-Methoxy-phenyl)-methyl-(1H-pyrrolo[2,3-b]pyridin-3-yl)-amine]
≤ 10 µM: [1] | [3] | [9] | [6]

O=C(O)COc1ccc(F)c(Cc2c[nH]c3ncc(-c4cccnc4)cc23)c1F [Compound P-1468, [2,4-difluoro-3-(5-pyridin-3-yl-1H-pyrrolo[2,3-b]pyridin-3-ylmethyl)-phenoxy]-acetic acid]
≤ 10 µM: [2] | [3] | [5] | [6] | [7] | [8]

CS(=O)(=O)Nc1cccc(-c2cnc3[nH]cc(Cc4ccc5c(c4)OCCO5)c3c2)c1 [Compound P-1530, N-{3-[3-(2,3-Dihydro-benzo[1,4]dioxin-6-ylmethyl)-1H-pyrrolo[2,3-b]pyridin-5-yl]-phenyl}-methanesulfonamide]
≤ 10 µM: [1] | [3] | [9] | [6] | [7] | [8]

CN(C)S(=O)(=O)Nc1ccc(F)c(C(=O)c2c[nH]c3ncccc23)c1F [Compound P-0950, Dimethylamine-1-sulfonic acid [3-(1H-pyrrolo[2,3-b]pyridine-3-carbonyl)-2,4-difluoro-phenyl]-amide]
≤ 10 µM: [1] | [10] | [9] | [8]

O=C(COc1ccc(F)c(Cc2c[nH]c3ncc(-c4cccnc4)cc23)c1F)NCc1ccccc1 [Compound P-1469, N-Benzyl-2-[2,4-difluoro-3-(5-pyridin-3-yl-1H-pyrrolo[2,3-b]pyridin-3-ylmethyl)-phenoxy]-acetamide]
not listed: [2] | [5] | [10] | [11]
≤ 10 µM: all other assays above

COc1ccc(C(=O)c2c[nH]c3ncc(Br)cc23)c(Cl)c1 [Compound P-0647]
≤ 10 µM: [1] | [9] | [11] | [6] | [8]

NC(=O)c1cccc(-c2cnc3[nH]cc(C(=O)c4cccc(N)c4)c3c2)c1 [Compound P-1592]
≤ 10 µM: [1] | [2] | [4] | [5] | [7] | [8]

CCCS(=O)(=O)Nc1ccc(F)c(C(=O)c2c[nH]c3ncc(-c4ccc(C(N)=O)cc4)cc23)c1F [Compound P-1546, 4-{3-[2,6-Difluoro-3-(propane-1-sulfonylamino)-benzoyl]-1H-pyrrolo[2,3-b]pyridin-5-yl}-benzamide]
not listed: [9] | [11]
≤ 10 µM: all other assays above

COc1ccnc2[nH]cc(Cc3ccc(NCc4ccc(Cl)cc4)nc3)c12 [Compound P-0373]
≤ 10 µM: [1] | [3] | [9] | [7] | [8]

O=C(O)/C=C/c1cccc(-c2cnc3[nH]cc(C(=O)c4ccc(Cl)cc4Cl)c3c2)c1 [Compound P-1585]
≤ 10 µM: [1] | [2] | [4] | [5] | [7] | [8]

O=C(O)/C=C/c1cccc(-c2cnc3[nH]cc(C(=O)c4cccc(C(F)(F)F)c4)c3c2)c1 [Compound P-1416, (E)-3-{3-[3-(3-Trifluoromethyl-benzoyl)-1H-pyrrolo[2,3-b]pyridin-5-yl]-phenyl}-acrylic acid]
≤ 10 µM: [1] | [3] | [9] | [6] | [7] | [8]

c1ccc(Oc2cccc(Nc3c[nH]c4ncccc34)c2)cc1 [Compound P-1496, (3-Phenoxy-phenyl)-(1H-pyrrolo[2,3-b]pyridin-3-yl)-amine]
≤ 10 µM: [3] | [9]

Clc1ccc(CNc2ccc(Cc3c[nH]c4nccc(Cl)c34)cn2)cc1 [Compound P-0515]
≤ 10 µM: [1] | [3] | [9] | [7] | [8]

O=S(=O)(Nc1ccc(F)c(Cc2c[nH]c3ncc(-c4cccnc4)cc23)c1F)c1ccccc1 [Compound P-1398]
≤ 10 µM: [1] | [10] | [9] | [8]

COCCOc1ccc(F)c(C(=O)c2c[nH]c3ncc(-c4cccc(NS(C)(=O)=O)c4)cc23)c1F [Compound P-1472, N-(3-{3-[2,6-Difluoro-3-(2-methoxy-ethoxy)-benzoyl]-1H-yrrolo[2,3-b]pyridin-5-yl}-phenyl)-methanesulfonamide]
not listed: [2] | [5] | [10] | [11]
≤ 10 µM: all other assays above

O=[N+]([O-])c1cccc(C(O)c2c[nH]c3ncc(-c4cccnc4)cc23)c1 (centres unmarked) [Compound P-1399, (3-nitro-phenyl)-(5-pyridin-3-yl-1H-pyrrolo[2,3-b]pyridin-3-yl)-methanol]
≤ 10 µM: [1] | [3] | [9] | [6] | [8]

CCCS(=O)(=O)Nc1ccc(F)c(Cc2c[nH]c3ncc(NCCN4CCN(C)CC4)cc23)c1F [Compound P-1345]
≤ 10 µM: [1] | [9] | [8]

Source: patent publication US8415469B2, “Compounds and methods for kinase modulation, and indications therefor” (Plexxikon Inc., priority 2005, dated 2013)
